Where two headings read alike, the source gives them in different places.
Tests used:
Experiment in all cases: HotSpot kinase profiling
Type in all cases: biochemical
MAPKAPK3 = target: T1, MAPKAPK3 (Homo sapiens, UniProt Q16644)
T1 construct: purchased Reaction Biology Corp
Outline: (§1)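 Radiometric kinase assay with P81 filter capture; each kinase was added to fresh substrate plus cofactors in reaction buffer and incubated 2 h at room temperature. Unreacted phosphate was washed off with 0.1% phosphoric acid before detection; percent inhibition is relative to DMSO control, averaged over replicates.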

RAF1 = settings: 3 μM
Outline: as §1

MLCK2/MYLK2 = target: T2, MLCK2/MYLK2 (Homo sapiens, UniProt Q9H1R3)
T2 construct: purchased Reaction Biology Corp
Outline: as §1

SGK2 = target: T3, SGK2 (Homo sapiens, UniProt Q9HBY8)
T3 construct: purchased Reaction Biology Corp
T3 sequence (Q9HBY8 1-367): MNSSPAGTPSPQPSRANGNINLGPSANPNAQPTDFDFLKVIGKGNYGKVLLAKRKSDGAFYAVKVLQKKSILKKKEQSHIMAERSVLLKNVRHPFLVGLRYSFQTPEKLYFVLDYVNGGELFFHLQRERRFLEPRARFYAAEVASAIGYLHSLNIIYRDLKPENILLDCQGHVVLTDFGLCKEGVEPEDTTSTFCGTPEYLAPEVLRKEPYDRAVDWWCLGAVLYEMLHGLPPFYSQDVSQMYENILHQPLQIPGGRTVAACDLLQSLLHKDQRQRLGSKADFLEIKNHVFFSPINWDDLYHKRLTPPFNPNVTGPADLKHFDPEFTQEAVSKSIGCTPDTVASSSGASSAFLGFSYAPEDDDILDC
Outline: as §1

PKCiota = target: T4, PKCiota (Homo sapiens, UniProt P41743)
T4 construct: purchased Reaction Biology Corp
T4 sequence (P41743 1-596): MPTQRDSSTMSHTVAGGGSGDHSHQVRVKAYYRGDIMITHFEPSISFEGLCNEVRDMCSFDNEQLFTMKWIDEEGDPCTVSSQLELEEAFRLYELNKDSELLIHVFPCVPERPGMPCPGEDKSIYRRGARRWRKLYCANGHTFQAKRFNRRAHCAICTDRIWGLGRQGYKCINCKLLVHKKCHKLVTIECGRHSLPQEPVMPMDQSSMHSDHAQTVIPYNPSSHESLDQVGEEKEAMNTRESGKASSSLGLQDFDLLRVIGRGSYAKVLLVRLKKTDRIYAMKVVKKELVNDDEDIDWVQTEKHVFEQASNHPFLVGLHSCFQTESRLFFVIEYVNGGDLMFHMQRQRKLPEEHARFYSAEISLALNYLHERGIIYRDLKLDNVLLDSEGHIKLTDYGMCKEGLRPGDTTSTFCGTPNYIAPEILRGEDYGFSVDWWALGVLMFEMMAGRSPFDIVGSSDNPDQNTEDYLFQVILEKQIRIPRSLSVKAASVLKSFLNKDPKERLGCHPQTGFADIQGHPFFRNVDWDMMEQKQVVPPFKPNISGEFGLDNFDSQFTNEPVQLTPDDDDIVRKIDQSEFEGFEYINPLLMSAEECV
Outline: as §1

SLK/STK2 = target: T5, SLK/STK2 (Homo sapiens, UniProt Q9H2G2)
T5 construct: purchased Reaction Biology Corp
Outline: as §1

ROS/ROS1 = target: T6, ROS/ROS1 (Homo sapiens, UniProt P08922)
T6 construct: purchased Reaction Biology Corp
Outline: as §1

NEK5 = target: T7, NEK5 (Homo sapiens, UniProt Q6P3R8)
T7 construct: purchased Reaction Biology Corp
T7 sequence (Q6P3R8 1-708): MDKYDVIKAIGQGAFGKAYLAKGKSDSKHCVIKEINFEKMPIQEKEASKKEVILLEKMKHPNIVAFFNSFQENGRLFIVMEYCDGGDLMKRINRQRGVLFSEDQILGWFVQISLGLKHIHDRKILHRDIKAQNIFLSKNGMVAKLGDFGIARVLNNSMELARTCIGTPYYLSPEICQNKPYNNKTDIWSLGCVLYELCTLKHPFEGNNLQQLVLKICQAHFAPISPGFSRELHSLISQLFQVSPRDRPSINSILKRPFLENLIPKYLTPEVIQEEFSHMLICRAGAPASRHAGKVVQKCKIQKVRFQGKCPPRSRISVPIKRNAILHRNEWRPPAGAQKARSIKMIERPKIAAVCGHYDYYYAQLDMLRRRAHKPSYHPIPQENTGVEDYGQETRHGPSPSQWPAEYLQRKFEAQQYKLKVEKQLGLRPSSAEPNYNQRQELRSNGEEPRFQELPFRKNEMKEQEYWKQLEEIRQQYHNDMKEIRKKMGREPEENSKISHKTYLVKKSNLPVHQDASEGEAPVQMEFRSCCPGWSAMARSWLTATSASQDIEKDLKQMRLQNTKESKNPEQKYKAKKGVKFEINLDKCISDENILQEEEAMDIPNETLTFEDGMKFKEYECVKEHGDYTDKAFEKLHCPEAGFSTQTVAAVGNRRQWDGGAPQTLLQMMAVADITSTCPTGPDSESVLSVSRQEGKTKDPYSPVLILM
Outline: as §1

[1] = read-out: % Enzyme Activity (relative to DMSO controls) Run 1
[2] = read-out: % Enzyme Activity (relative to DMSO controls) Run 2

T1 sequence (Q16644 whole entry): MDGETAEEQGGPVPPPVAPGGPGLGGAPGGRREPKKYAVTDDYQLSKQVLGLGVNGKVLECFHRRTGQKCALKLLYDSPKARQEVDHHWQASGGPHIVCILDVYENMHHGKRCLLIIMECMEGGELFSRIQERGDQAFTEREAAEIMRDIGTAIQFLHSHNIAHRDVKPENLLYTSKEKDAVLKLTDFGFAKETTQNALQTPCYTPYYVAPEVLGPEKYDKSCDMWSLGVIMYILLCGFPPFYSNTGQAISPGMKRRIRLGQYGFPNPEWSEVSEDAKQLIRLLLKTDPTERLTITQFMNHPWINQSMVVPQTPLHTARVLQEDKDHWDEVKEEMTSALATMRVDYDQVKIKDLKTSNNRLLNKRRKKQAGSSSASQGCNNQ
T5 sequence (Q9H2G2 whole entry): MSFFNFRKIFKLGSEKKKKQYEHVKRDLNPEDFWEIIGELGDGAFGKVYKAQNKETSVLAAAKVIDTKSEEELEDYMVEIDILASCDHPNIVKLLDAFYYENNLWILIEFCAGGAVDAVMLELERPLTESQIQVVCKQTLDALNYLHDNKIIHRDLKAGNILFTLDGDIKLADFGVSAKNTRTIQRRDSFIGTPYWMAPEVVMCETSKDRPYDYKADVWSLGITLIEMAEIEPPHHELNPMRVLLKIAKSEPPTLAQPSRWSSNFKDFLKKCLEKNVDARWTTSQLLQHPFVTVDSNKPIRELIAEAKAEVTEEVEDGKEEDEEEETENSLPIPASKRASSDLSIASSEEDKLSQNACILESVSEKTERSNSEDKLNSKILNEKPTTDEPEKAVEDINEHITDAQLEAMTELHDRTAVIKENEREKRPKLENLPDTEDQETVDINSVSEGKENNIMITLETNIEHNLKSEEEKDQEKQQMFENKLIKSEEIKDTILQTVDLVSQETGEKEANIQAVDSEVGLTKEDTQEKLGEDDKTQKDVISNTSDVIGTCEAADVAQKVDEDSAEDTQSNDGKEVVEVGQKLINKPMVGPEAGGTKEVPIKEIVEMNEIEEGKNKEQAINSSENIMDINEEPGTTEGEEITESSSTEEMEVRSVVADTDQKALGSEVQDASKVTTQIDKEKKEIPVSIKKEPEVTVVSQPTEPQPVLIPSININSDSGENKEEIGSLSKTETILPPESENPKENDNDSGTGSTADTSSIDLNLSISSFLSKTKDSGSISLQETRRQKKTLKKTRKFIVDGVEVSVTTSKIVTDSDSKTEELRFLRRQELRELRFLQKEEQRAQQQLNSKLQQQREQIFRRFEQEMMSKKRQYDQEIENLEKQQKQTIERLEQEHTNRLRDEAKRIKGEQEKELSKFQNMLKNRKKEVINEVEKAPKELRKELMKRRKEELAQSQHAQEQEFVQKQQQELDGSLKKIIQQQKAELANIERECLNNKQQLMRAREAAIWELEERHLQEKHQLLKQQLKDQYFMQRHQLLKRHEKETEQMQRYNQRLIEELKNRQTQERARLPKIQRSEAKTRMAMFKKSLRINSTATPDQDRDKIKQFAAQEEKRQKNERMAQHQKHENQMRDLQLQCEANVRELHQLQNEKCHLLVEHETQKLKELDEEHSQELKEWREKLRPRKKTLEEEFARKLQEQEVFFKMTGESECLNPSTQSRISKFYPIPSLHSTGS
T6 sequence (P08922 28-2347): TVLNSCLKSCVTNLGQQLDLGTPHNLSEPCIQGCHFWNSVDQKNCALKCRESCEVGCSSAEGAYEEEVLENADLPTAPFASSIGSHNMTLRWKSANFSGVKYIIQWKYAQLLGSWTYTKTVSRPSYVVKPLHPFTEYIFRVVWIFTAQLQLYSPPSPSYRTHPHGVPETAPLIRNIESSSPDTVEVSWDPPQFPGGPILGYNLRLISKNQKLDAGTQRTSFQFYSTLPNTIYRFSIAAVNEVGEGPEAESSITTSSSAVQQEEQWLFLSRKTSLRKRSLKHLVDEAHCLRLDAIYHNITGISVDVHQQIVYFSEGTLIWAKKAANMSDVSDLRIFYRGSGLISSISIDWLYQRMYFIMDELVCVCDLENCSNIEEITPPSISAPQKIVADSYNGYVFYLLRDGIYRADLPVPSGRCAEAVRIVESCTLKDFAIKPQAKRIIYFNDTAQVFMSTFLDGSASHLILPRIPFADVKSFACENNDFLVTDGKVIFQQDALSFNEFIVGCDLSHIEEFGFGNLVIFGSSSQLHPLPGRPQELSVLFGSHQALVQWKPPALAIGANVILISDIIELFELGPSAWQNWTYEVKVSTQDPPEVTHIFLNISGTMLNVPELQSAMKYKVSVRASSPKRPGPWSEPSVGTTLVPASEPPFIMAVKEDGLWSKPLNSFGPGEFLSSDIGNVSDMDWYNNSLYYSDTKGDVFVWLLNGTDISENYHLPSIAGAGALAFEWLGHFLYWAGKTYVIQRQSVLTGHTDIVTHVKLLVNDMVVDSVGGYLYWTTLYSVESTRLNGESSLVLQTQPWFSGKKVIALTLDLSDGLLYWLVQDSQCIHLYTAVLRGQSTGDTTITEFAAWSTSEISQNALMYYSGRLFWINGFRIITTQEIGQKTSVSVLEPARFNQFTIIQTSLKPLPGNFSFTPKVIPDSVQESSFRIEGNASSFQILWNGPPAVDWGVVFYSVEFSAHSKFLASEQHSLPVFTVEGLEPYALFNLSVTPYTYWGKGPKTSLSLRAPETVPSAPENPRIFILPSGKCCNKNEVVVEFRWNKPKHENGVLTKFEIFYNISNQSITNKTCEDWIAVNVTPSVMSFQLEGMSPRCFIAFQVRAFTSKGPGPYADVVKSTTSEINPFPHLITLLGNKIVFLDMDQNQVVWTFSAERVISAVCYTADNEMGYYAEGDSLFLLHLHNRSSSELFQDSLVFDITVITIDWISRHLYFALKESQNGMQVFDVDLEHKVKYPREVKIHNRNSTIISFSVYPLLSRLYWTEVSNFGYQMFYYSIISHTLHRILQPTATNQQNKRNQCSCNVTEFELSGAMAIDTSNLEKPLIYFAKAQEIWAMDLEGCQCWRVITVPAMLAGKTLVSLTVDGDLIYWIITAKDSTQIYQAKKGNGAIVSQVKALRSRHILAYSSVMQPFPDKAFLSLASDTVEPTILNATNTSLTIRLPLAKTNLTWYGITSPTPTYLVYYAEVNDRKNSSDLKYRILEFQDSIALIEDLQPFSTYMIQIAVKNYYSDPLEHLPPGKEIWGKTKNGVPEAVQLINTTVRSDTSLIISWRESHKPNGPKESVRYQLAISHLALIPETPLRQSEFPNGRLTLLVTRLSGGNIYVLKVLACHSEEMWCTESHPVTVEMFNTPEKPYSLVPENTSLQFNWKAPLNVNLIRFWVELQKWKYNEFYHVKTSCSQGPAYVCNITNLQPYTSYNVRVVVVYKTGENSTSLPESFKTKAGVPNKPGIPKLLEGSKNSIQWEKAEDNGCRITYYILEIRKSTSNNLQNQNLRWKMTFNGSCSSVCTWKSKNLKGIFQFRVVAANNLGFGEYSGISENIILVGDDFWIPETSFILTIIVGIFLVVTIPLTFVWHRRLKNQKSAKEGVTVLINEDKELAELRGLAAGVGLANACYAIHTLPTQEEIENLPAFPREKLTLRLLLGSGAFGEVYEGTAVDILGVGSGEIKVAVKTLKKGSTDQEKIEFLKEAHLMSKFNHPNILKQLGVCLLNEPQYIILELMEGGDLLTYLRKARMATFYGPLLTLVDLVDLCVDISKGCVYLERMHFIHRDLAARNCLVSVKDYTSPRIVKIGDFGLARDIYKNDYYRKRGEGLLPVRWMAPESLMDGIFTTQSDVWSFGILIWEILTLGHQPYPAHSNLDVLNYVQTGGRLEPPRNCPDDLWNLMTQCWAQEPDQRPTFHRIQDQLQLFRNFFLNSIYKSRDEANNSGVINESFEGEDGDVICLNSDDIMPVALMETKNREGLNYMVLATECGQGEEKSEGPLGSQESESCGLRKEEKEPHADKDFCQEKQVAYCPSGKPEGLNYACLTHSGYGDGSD

C=CC(=O)Nc1cccc(Nc2nc(Nc3ccc(OCCOC)c(F)c3)ncc2F)c1 [Compound 2]
inhibition at 3 µM (MAPKAPK3): -2.45% | remaining activity at 3 µM (MAPKAPK3; [1]): 102% | remaining activity at 3 µM (MAPKAPK3; [2]): 103% | % Enzyme Activity (relative to DMSO controls) Run 1 (RAF1): 83.34% | % Enzyme Activity (relative to DMSO controls) Run 2 (RAF1): 83.62% | Average % Inhibition (RAF1): 16.52% | inhibition at 3 µM (MLCK2/MYLK2): 30.1% | remaining activity at 3 µM (MLCK2/MYLK2; [1]): 71.6% | remaining activity at 3 µM (MLCK2/MYLK2; [2]): 68.1% | inhibition at 3 µM (SGK2): 26% | remaining activity at 3 µM (SGK2; [1]): 71.4% | remaining activity at 3 µM (SGK2; [2]): 76.6% | inhibition at 3 µM (PKCiota): -5.47% | remaining activity at 3 µM (PKCiota; [1]): 105% | remaining activity at 3 µM (PKCiota; [2]): 106% | inhibition at 3 µM (SLK/STK2): 24.9% | remaining activity at 3 µM (SLK/STK2; [1]): 74.9% | remaining activity at 3 µM (SLK/STK2; [2]): 75.3% | inhibition at 3 µM (ROS/ROS1): 86.6% | remaining activity at 3 µM (ROS/ROS1; [1]): 13.5% | remaining activity at 3 µM (ROS/ROS1; [2]): 13.3% | inhibition at 3 µM (NEK5): 39.4% | remaining activity at 3 µM (NEK5; [1]): 60.2% | remaining activity at 3 µM (NEK5; [2]): 60.9%
